Measurements: the NIST ThermoML archive (doi:10.1021/acs.jced.8b00723)
± gives the expanded uncertainty stated by the source.

Experiment: an = ratio of the nth substance listed
Conditions: 308.15 K, 100 kPa, Liquid; for speed of sound: Single path-length method; for mass density: Vibrating tube method

speed of sound (a1 = 0.05) [m/s] | speed of sound (a1 = 0.1) [m/s] | speed of sound (a1 = 0.15) [m/s] | mass density (a1 = 0.05) [kg/m3] | mass density (a1 = 0.1) [kg/m3] | mass density (a1 = 0.15) [kg/m3] | speed of sound (a1 = 0.075) [m/s] | mass density (a1 = 0.075) [kg/m3] | Compound
1542.9 ± 0.6 | 1559.2 ± 0.6 | 1590.4 ± 0.6 | 990.6 ± 10 | 982.8 ± 10 | 971.7 ± 10 |  |  | CCO [ethanol] + O
1533.2 ± 0.5 | 1543.5 ± 0.5 | 1566.7 ± 0.5 | 988.6 ± 10 | 980.6 ± 10 | 971 ± 10 |  |  | CO [methanol] + O
1551.7 ± 0.6 | 1569.7 ± 0.6 |  | 993.1 ± 10 | 987.6 ± 10 |  | 1566.2 ± 0.6 | 991.8 ± 10 | CC(C)O [propan-2-ol] + O
